Literature values as cited in patent US20120015899A1 (priority 2008, published 2012).

In the case of `Cl.Nc1ccn([C@@H]2O[C@H](CO)[C@@H](O)C2(F)F)c(=O)n1` [Gemcitabine, Cytidine, 2′-deoxy-2′,2′-difluoro-, monohydrochloride], the pKa is given as 3.58.
